# Test results published in publication PMC3222310, “Purification and characterization of hydroquinone dioxygenase from Sphingomonas sp. strain TTNP3” (AMB Express, 2011).
# T1: hydroquinone dioxygenase (HQDO) from Sphingomonas sp. strain TTNP3 (Sphingomonas sp. TTNP3, UniProt F8TW82+F8TW83)
# T1 construct: gene hqdB; native enzyme purified from nonylphenol-induced cells; untagged; alpha2beta2 heterotetramer, 120 kDa by SEC, bands 38 kDa and 19 kDa; b63 order implies HqdA small and HqdB large, abstract order of identities contradicts
# T1 sequence (F8TW83 1-341): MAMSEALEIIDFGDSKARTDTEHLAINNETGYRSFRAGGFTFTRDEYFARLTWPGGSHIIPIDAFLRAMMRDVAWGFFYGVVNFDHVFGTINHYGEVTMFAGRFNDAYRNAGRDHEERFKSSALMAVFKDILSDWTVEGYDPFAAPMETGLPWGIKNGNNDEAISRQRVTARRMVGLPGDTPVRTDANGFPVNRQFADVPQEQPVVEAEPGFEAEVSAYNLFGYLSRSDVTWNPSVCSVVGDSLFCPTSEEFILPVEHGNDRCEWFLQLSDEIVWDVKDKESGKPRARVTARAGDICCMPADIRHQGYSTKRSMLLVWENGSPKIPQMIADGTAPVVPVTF
# T1 sequence (F8TW82 1-170): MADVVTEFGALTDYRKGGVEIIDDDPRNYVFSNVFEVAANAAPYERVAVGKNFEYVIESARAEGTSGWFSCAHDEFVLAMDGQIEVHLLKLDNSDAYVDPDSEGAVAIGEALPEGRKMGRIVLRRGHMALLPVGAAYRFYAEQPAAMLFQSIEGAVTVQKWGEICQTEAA
# Assays:
# [1] = target: T1, hydroquinone dioxygenase (HQDO) from Sphingomonas sp. strain TTNP3; assay: residual activity on HQ with inhibitor; type: biochemical
# Source text: residual activity on HQ with inhibitor on hydroquinone dioxygenase (HQDO) from Sphingomonas sp. strain TTNP3
# purified protein = substrate: Oc1ccc(O)cc1; assay: purified protein; type: biochemical, Sphingomonas sp. TTNP3; settings: air-saturated 50 mM Tris, pH 7.0, 25°C, kcat per heterotetramer, suicide deactivation by substrate
Molecule,activity at 200 µM [1],also measured
"O=C(O)c1ccc(O)c(O)c1 [3,4-Dihydroxybenzoate]",94 ± 4.6%,
O=C(O)/C=C/c1ccc(O)cc1 [4-Coumaric acid],97 ± 1.9%,
O=C(O)c1ccc(O)cc1 [4-Hydroxybenzoate],46 ± 0.4%,
N#CCc1ccc(O)cc1 [4-Hydroxybenzylcyanide],,"Activity (%) ([1]; 2 µM, substrate HQ, compound named 4-hydroxybenzonitrile in text, 4-hydroxybenzylcyanide in table): 16 ± 0.2%"
Oc1ccc(S)cc1 [4-Mercaptophenol],,activity at 20 µM [1]: 5%
O=[N+]([O-])c1ccc(O)cc1 [4-Nitrophenol],27 ± 1.2%,
O=C1C=CC(=O)C=C1 [Benzoquinone],,activity at 20 µM [1]: 16 ± 0.3%
O=C(O)/C=C/c1ccc(O)c(O)c1 [Caffeic acid],,activity at 80 µM [1]: 98 ± 2.5%
Oc1ccccc1O [Catechol],93 ± 1.3%,
Oc1ccccc1 [Phenol],98 ± 1.7%,
Oc1cccc(O)c1 [Resorcinol],99 ± 0.5%,
COc1cc(C(=O)O)ccc1O [Vanillate],86 ± 1%,
COc1cc(C=O)ccc1O [Vanillin],,activity at 100 µM [1]: 18 ± 7.4%
COc1cc(CO)ccc1O [Vanillyl alcohol],62 ± 1%,
"hydroquinone dioxygenase (HQDO) from Sphingomonas sp. strain TTNP3 (Sphingomonas sp. TTNP3) (protein, native enzyme purified from nonylphenol-induced cells; untagged; alpha2beta2 heterotetramer, 120 kDa by SEC, bands 38 kDa and 19 kDa; b63 order implies HqdA small and HqdB large, abstract order of identities contradicts) chain 1: MAMSEALEIIDFGDSKARTDTEHLAINNETGYRSFRAGGFTFTRDEYFARLTWPGGSHIIPIDAFLRAMMRDVAWGFFYGVVNFDHVFGTINHYGEVTMFAGRFNDAYRNAGRDHEERFKSSALMAVFKDILSDWTVEGYDPFAAPMETGLPWGIKNGNNDEAISRQRVTARRMVGLPGDTPVRTDANGFPVNRQFADVPQEQPVVEAEPGFEAEVSAYNLFGYLSRSDVTWNPSVCSVVGDSLFCPTSEEFILPVEHGNDRCEWFLQLSDEIVWDVKDKESGKPRARVTARAGDICCMPADIRHQGYSTKRSMLLVWENGSPKIPQMIADGTAPVVPVTF chain 2: MADVVTEFGALTDYRKGGVEIIDDDPRNYVFSNVFEVAANAAPYERVAVGKNFEYVIESARAEGTSGWFSCAHDEFVLAMDGQIEVHLLKLDNSDAYVDPDSEGAVAIGEALPEGRKMGRIVLRRGHMALLPVGAAYRFYAEQPAAMLFQSIEGAVTVQKWGEICQTEAA",,Km (purified protein): 2.2 ± 0.2 µM; kcat (purified protein): 13.5 s⁻¹
